# Reference: patent US9387197B2, “Methods for treating conditions such as dystonia and post-stroke spasticity with clonidine” (Warsaw Orthopedic, Inc., priority 2008, dated 2016)
# System: Rat Chronic Constriction Injury Model
# Settings: FIG. 4; days 8-64
# Protocol: A 2-month chronic constriction injury (CCI) model of neuropathic pain was used to evaluate different formulations of clonidine encapsulated in bioerodible polymers compared to clonidine given subcutaneously (SC). Different formulations as provided in Table 5 below were evaluated for reducing pain-associated behaviors: Thermal paw withdrawal latency was evaluated at baseline, 7, 14, 21, 28, 35, 42, 49, 56 and 64 days post-operatively, while mechanical threshold was evaluated at 8, 15, 22, 29, 36, 43, 50, 57 and 64 days post-operatively.
# The inventors evaluated the efficacy of a five month Clonidine/Polymer Drug Depot in the Rat Chronic Constriction Injury Model. The animal model was the Bennett Model (Wistar rat). The purpose: To determine whether a five month polymer clonidine-eluting depot can improve pain associated behavioral responses in a rat model of neuropathic pain.
# Experimental Design: Four loose chromic gut ligatures, 1 mm apart, were tied around the common sciatic nerve at mid-thigh. Each animal received treatment of a test or control article according to the dosing described in Table 5.
# The inventors have conducted the present study for a period of 64 days and have employed the following two tests: (1) the Hargreaves test; and (2) the von Frey test. […]
structure (smiles),measurement,value
"Clc1cccc(Cl)c1N=C1NCCN1 [clonidine, 2,6-dichloro-N-2-imidazolidinyldenebenzenamine]","pain behavioral response, mechanical threshold (mechanical allodynia), compared to unloaded polymer depots",reduced the behavioral response
